# US10299502B2, “Method for producing an extract of a matrix of vegetable origin with a non-ionic amphiphilic compound as extraction adjuvant in an aqueous medium” (PIERRE FABRE DERMO-COSMETIQUE, priority 2015, dated 2019)
# How the values were obtained:
# [1] = Recovery of extracted α-mangostin by precipitation on dilution; assay type: physicochemical
# Source text: The extract thus obtained may also be diluted in a volume of water optionally supplemented with one or more adjuvants selected from salts, acids or bases, so as to be at a final concentration of non-ionic amphiphilic compound below the sufficient concentration defined above. Thus, it is possible to recover the lipophilic compounds by precipitation and solid-liquid separation such as filtration or centrifugation.
# At 7% amyl xyloside, 100% of the α-mangostin extracted precipitates.
# [2] = Solubilization curves (Sudan red, α-mangostin) to determine the minimum hydrotrope concentration; assay type: physicochemical; conditions: deduced from solubilization curves in aqueous solution
# Method: The term “minimum hydrotrope concentration” refers to the concentration above which these non-ionic amphiphilic compounds begin to form aggregates, i.e., new microenvironments with physical properties different from those observed when the compound is diluted, and different from micellar behavior. This minimum hydrotrope concentration is specific to each non-ionic amphiphilic compound and generally has the order of magnitude of the molarity. It can be determined by several physicochemical methods, such as by measuring surface tension, conductivity or dynamic and static light scattering (Self-association of nicotinamide in aqueous solution: Light-scattering and vapor pressure osmometry studies (1996) 85(8): 848-853), or quite simply by establishing a solubilization curve of a lipophilic compound (solubilized solute content as a function of concentration of non-ionic amphiphilic compound). Sudan red, a lipophilic dye easily measured by spectrophotometry, can be used as reference. […]
# The solubilization curves of Sudan red in aqueous solutions of various non-ionic amphiphilic compounds at different concentrations were prepared. After saturation of the solutions with Sudan red and filtration, the Sudan red content solubilized in each solution is measured after dilution by UV spectrophotometry at 476 nm. […]
"% of α-mangostin recovered by precipitation/α-mangostin extracted ([1]; extraction concentration 59%, concentration after dilution 24%)",MHC (minimum hydrotrope concentration) [2],"% of α-mangostin recovered by precipitation/α-mangostin extracted ([1]; extraction concentration 40%, concentration after dilution 7%)","% of α-mangostin recovered by precipitation/α-mangostin extracted ([1]; extraction concentration 40%, concentration after dilution 7%, listed as amyl xyloside)","% of α-mangostin recovered by precipitation/α-mangostin extracted ([1]; extraction concentration 40%, concentration after dilution 15%)","% of α-mangostin recovered by precipitation/α-mangostin extracted ([1]; extraction concentration 40%, concentration after dilution 15%, listed as amyl xyloside)",Compound
66%,,,,,,"CC(C)(O)CCO [Isopentyldiol, 3-methyl-1,3-butanediol]"
,5-10%,100%,100%,12%,little α-mangostin precipitates,amyl xyloside
